This note sets out measurements from patent US12612403B2, “Nitrogen-containing heterocyclic derivative inhibitor, and preparation method therefor and use thereof” (SHANGHAI HANSOH BIOMEDICAL CO., LTD., priority 2024, dated 2026).

For orientation: IC50 means the point on the concentration scale where inhibition reaches its midpoint. As usually defined, the MRT is the average time that molecules of a dose stay in the body. Usually Tmax stands for the time at which the peak concentration occurs.

For data set [1], the target named is T1, PCSK9 protein (Homo sapiens, UniProt Q8NBP7).
T1 construct: purchased Sino biology (Sino Biological) 29698-H08H
T1 sequence (Q8NBP7 153-692): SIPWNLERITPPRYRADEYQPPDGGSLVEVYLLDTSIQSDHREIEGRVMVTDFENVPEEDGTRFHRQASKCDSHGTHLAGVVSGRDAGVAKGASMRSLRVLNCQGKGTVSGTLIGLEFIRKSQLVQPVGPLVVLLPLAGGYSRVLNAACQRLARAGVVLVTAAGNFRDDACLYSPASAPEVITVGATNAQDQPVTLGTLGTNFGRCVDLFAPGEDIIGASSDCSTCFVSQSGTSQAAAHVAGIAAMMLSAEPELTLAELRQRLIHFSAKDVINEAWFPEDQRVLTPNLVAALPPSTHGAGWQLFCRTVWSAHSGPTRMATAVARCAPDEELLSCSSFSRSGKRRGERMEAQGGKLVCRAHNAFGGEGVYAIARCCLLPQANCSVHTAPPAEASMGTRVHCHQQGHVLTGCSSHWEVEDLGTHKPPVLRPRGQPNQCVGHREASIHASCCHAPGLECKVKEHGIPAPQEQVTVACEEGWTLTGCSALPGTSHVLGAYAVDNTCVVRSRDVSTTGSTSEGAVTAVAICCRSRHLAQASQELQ
Kind of data set: Binding ability to PCSK9 protein (HTRF). Particulars: PCSK9-His, Alexa Fluor 647 probe compound. On the procedure: 1. Experimental objective: To detect the action of compounds to bind PCSK9 protein by an HTRF method.
3. Experimental data processing method: Four-parameter log(inhibitor) vs. response—Variable slope (four parameters) in XLit was used to perform non-linear fitting of the compound concentration and the corresponding inhibition rate, and IC50 was calculated.

A short description of data set [2]: Pharmacokinetic determination in mice (PO 5 mg/kg, IV 1 mg/kg). It counts as in vivo, C57BL/6J mice. To be noted: male, C57BL/6J, mouse, plasma, C57 mice, PO administration, 5 mpk; for AUC(0-inf): read-out: Area under the curve AUC0-∞; for half-life: read-out: Half-life t1/2 (converted); for MRT: read-out: Mean residence time MRT; for Cmax: read-out: Plasma concentration Cmax; for Tmax: read-out: Time to peak tmax. Summed up: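 Fasted male C57BL/6J mice (n=3 per route) dosed PO 5 mg/kg in 10% Solutol HS15 or IV 1 mg/kg in 5% DMSO/10% Solutol HS15/85% PBS. Orbital blood sampled 0.083 (IV) to 24 h; plasma measured by LC-MS/MS, parameters by WinNonlin.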

Data set [3] has as its system hyperlipidemia animal model of B6-hPCSK9 transgenic mice. Kind of data set: In vivo pharmacodynamic study in hyperlipidemia model of B6-hPCSK9 transgenic mice (LDL-C, TC, plasma PCSK9). Also on record: species or system B6-hPCSK9 transgenic C57 mice. Particulars: PO administration, 10 mpk, Day 14, B6-hPCSK9 transgenic mice on high-fat feed, normalized to vehicle group. Here is the method: 1. Experimental objective: The compounds of the present disclosure were evaluated for in vivo pharmacodynamics in a hyperlipidemia animal model of B6-hPCSK9 transgenic mice.
2.1 Animals: B6-hPCSK9 transgenic C57 mice, 6-8 weeks old, male, purchased from Jiangsu GemPharmatech Co., Ltd.
2.2 Animal model: After delivery to a barrier system, the animals were given one week for acclimatization and began to feed on the high-fat feed. The body weight and feed weight were weighed once a week, and the body weight and food intake thereof were recorded.
2.3 Grouping and administration • a. The animals were grouped by a random grouping method. • c. According to the grouping results, administration with the test drug was started (mode of administration: oral administration; administration volume: 10 mL/kg; frequency of administration: once/day or single administration; administration cycle: 21 days; vehicle: 10% Solutol HS 15/90% Saline). Test drug: Compounds of the present disclosure, made in house. • d. After the test drug was administered, the body weight and feed weight were weighed twice a week and blood was taken once a week. • e. The data was processed with software such as Excel. […] PCSK9 in plasma was detected by ELISA.

On to `O=c1nc(O)ccn1-c1ccc(N[C@H]2CC[C@H](Nc3nc4cc(C(F)(F)F)ccn4n3)C2)nc1` [Example 78, 4-hydroxy-1-(6-(((1S,3S)-3-((7-(trifluoromethyl)-[1,2,4]triazolo[1,5-a]pyridin-2-yl)amino)cyclopentyl)amino)pyridin-3-yl)pyrimidin-2(1H)-one], for which, in data set [1], the IC50 is 10.1 nM. For the same compound, in data set [2], the AUC(0-inf) worked out at 14000 ng·h/mL, the half-life is 3.6 h, the MRT came out at 1.7 h and the Cmax amounted to 7860 ng/mL. Also, the Tmax in data set [2] was 0.25 h. The “LDL-C change vs vehicle (%), Day 14” value in data set [3] is listed as −37.98%.
`O=C1c2ncccc2CN1c1cnc(N[C@H]2CC[C@H](Nc3nc4cc(OC(F)F)ccn4n3)C2)c(F)c1` [Example 151] had an IC50 in data set [1] of 8.1 nM. In addition, in data set [2], the AUC(0-inf) amounted to 11300 ng·h/mL, the half-life is 1.4 h, the MRT was determined as 2.3 h and the Cmax came out at 3460 ng/mL. Moreover, in data set [2], the Tmax was found to be 0.5 h. The “LDL-C change vs vehicle (%), Day 14” value in data set [3] is listed as −31.09%.
In the case of `O=c1nc(O)ccn1-c1cnc(N[C@H]2CC[C@H](Nc3nc4cc(C(F)(F)F)ccn4n3)C2)c(F)c1` [Example 183], the IC50 in data set [1] amounted to 8.8 nM. In data set [2], the AUC(0-inf) stood at 26700 ng·h/mL, the half-life was 3 h, the MRT is 3.5 h and the Cmax is 6130 ng/mL. In addition, in data set [2], the Tmax came to 0.7 h. The “LDL-C change vs vehicle (%), Day 14” value in data set [3] is reported as −48.90%.
